Active and inactive are the calls of the source.
Assays:
[1] = toxicity toward cultured mammalian cells – cell-based, plate reader, cherry-pick samples, cytotoxicity control, dose response (AID 504397); assay type: functional
CAAX prenyl protease 2 = CAAX prenyl protease 2 (Saccharomyces cerevisiae S288c, UniProt Q03530); assay type: biochemical
[2] = target: T1, G-protein coupled receptor 55 (Homo sapiens, UniProt Q9Y2T6); assay: blockade of LPI-induced GPR55 arrestin translocation – imaging, U2OS, beta-arrestin-GFP, LPI agonist, set 2, SAR follow-up (AID 2820); assay type: functional
Cannabinoid receptor 2 [3] = target: T2, Cannabinoid receptor 2 (Homo sapiens, UniProt P34972); assay: SAR analysis of antagonists of the Cannabinoid Receptor 2 using an Image-Based Assay. [Related pubchem assays (depositor defined):AID2013, AID2026]; assay type: functional
[4] = target: T3, G-protein coupled receptor 35 (Homo sapiens, UniProt Q9HC97); assay: SAR analysis of Agonists of the GPR35 Receptor using an Image-Based Assay - Set 2. [Related pubchem assays (depositor defined):AID2013, AID2026]; assay type: functional
[5] = target: T3, G-protein coupled receptor 35; assay: SAR analysis of Antagonists of the GPR35 Receptor using an Image-Based Assay - Set 3. [Related pubchem assays (depositor defined):AID2013, AID2026]; assay type: functional
[6] = blockers of HIV-1 ZM109 envelope-driven cell-cell fusion – HeLa effector, CEM target cells, luciferase, cherry-pick, dose response (AID 652058); assay type: functional, cell-based;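 also: luciferase signal from HIV-1 Env mediated cell-cell fusion of effector and target cells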
[7] = HIV-1 AD8 envelope cell-cell fusion blockers – cherry-pick, dose response (AID 652062); assay type: functional, cell-based;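 also: luciferase signal from cell-cell fusion driven by HIV-1 clade B AD8 Env; potency is for inhibitors of fusion seen as a drop in luminescence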
Cannabinoid receptor 1 [8] = target: T4, Cannabinoid receptor 1 (Homo sapiens, UniProt P21554); assay: SAR analysis of agonists of the Cannabinoid Receptor 1 using an Image-Based Assay - Set 2. [Related pubchem assays (depositor defined):AID2013, AID2026]; assay type: functional
[9] = off-target signal loss in HeLa-CEM21 co-culture – HeLa F-luc CTL cells, cherry-picked, counter-screen for HIV-1 Env fusion inhibitor project, dose response (AID 652040); assay type: functional, cell-based;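 also: potency for signal decrease marking cytotoxic or nonspecific inhibition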
[10] = target: T1, G-protein coupled receptor 55; assay: inhibition of LPI-stimulated GPR55 beta-arrestin translocation – imaging, U2OS, beta-arrestin-GFP, LPI agonist, primary screen (AID 2013); assay type: functional;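 also: antagonist potency measured as reduced agonist-driven arrestin aggregation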
[11] = viability loss in CEM21 cells – cell-based, CellTiter-Glo luminescence, cherry-picked, cytotoxicity control for viral fusion inhibitor project, dose response (AID 652042); assay type: functional;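 also: potency for signal decrease meaning cytotoxicity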
Cannabinoid receptor 2 [12] = target: T2, Cannabinoid receptor 2; assay: SAR analysis of agonists of the Cannabinoid Receptor 2 using an Image-Based Assay. [Related pubchem assays (depositor defined):AID2013, AID2026]; assay type: functional
[13] = blockers of HIV-1 envelope-mediated cell-cell fusion – cherry-pick, dose response (AID 652057); assay type: functional, cell-based
Cannabinoid receptor 1 [14] = target: T4, Cannabinoid receptor 1; assay: SAR analysis of antagonists of the Cannabinoid Receptor 1 using an Image-Based Assay - Set 2. [Related pubchem assays (depositor defined):AID2013, AID2026]; assay type: functional
X-box-binding protein 1 = target: T5, X-box-binding protein 1 (Homo sapiens, UniProt P17861); assay type: functional, Cricetulus griseus;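 also: confirmatory dose-response counter-screen serving a CHOP assay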
T5 sequence (P17861 whole entry): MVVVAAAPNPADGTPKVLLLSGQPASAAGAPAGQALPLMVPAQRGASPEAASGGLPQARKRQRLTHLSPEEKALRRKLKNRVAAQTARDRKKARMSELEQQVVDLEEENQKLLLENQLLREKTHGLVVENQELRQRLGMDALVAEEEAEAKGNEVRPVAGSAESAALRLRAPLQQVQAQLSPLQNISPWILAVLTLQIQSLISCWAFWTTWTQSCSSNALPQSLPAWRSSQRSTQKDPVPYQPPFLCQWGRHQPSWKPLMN

[15] = target: T6, Replicative DNA helicase DnaB (Mycobacterium tuberculosis, UniProt P9WMR3); assay: DnaB intein splicing inhibitors, dose response, biochemical, cell-free fluorescence (AID 449749); assay type: functional
T6 sequence (P9WMR3 whole entry): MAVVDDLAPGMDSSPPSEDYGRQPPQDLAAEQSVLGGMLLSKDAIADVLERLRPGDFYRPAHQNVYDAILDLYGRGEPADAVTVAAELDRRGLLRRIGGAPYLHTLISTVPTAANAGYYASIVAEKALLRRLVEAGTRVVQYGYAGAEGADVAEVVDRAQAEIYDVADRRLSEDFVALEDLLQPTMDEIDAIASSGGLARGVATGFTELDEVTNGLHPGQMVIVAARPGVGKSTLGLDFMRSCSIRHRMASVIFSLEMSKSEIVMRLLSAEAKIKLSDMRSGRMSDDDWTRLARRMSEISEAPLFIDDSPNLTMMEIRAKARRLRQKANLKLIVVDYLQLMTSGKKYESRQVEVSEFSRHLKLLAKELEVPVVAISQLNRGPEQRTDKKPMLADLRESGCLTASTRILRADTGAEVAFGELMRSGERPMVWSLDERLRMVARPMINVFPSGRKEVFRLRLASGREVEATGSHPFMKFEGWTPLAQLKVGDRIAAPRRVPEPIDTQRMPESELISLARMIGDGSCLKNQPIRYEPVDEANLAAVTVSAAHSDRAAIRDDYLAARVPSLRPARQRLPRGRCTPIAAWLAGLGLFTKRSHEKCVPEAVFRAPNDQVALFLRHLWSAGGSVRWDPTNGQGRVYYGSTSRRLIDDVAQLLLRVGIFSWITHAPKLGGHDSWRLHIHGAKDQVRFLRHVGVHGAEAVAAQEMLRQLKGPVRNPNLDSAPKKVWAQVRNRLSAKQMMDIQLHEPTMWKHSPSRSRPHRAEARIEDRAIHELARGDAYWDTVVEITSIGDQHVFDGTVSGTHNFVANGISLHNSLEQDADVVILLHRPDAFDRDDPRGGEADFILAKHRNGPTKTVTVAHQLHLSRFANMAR

Mu-type opioid receptor = Mu-type opioid receptor (Homo sapiens, UniProt P35372); assay: HTS Image-Based Screen for Agonists of the MOR Receptor. [Related pubchem assays (depositor defined):AID1777, AID1785, AID1786, AID2133]; assay type: functional;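 also: imaging of beta-arrestin GFP recruitment into spots after receptor activation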
[16] = target: T7, Delta-type opioid receptor (Homo sapiens, UniProt P41143); assay: HTS Image-Based Screen for Antagonists of the DOR Receptor. [Related pubchem assays (depositor defined):AID1777, AID1785, AID1786, AID2133]; assay type: functional
[17] = target: T7, Delta-type opioid receptor; assay: HTS Image-Based Screen for Agonists of the DOR Receptor. [Related pubchem assays (depositor defined):AID1777, AID1786, AID2133]; assay type: functional
[18] = target: T8, Kappa-type opioid receptor (Homo sapiens, UniProt P41145); assay type: functional
Protein RecA = target: T9, Protein RecA (Mycobacterium tuberculosis, UniProt P9WHJ3); assay: Fluorescence Cell-Free Homogeneous Dose Retest to Identify Inhibitors of RecA-Intein Splicing Activity. [Related pubchem assays (depositor defined):AID2097, AID2223, AID489010, AID492950]; assay type: functional
T9 sequence (P9WHJ3 whole entry): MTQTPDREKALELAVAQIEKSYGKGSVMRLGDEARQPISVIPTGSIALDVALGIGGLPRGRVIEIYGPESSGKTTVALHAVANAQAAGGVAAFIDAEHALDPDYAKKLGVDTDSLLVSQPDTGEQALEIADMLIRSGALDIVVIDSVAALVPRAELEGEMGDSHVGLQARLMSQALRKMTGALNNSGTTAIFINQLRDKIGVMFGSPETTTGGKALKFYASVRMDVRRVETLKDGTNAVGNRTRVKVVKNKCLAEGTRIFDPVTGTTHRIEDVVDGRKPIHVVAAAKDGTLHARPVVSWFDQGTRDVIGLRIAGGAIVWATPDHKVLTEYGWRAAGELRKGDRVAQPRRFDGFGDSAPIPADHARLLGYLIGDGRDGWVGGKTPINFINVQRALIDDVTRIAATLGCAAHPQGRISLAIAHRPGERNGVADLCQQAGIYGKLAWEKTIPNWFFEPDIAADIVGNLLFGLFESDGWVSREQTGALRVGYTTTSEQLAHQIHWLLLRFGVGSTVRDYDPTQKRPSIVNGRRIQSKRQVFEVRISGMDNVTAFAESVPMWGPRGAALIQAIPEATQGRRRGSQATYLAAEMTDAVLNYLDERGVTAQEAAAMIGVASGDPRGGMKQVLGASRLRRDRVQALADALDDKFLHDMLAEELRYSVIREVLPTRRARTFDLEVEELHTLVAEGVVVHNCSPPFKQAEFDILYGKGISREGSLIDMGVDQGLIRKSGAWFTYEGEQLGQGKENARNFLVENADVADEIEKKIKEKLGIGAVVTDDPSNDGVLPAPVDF

[19] = target: T8, Kappa-type opioid receptor; assay type: functional; remark: listed apart in the source
Beta-galactosidase = Beta-galactosidase (Escherichia coli, UniProt Q8VNN2); assay type: functional
[20] = target: T1, G-protein coupled receptor 55; assay: SAR Analysis of Selective Antagonists of GPR55 using an Image-Based Assay - Set 4. [Related pubchem assays (depositor defined):AID2013, AID2026]; assay type: functional
Cannabinoid receptor 1 [21] = target: T4, Cannabinoid receptor 1; assay: SAR analysis of agonists of the Cannabinoid Receptor 1 using an Image-Based Assay - Set 4. [Related pubchem assays (depositor defined):AID2013, AID2026]; assay type: functional
[22] = target: T3, G-protein coupled receptor 35; assay: SAR analysis of Antagonists of the GPR35 Receptor using an Image-Based Assay - Set 6. [Related pubchem assays (depositor defined):AID2013, AID2026]; assay type: functional
[23] = target: T3, G-protein coupled receptor 35; assay: SAR analysis of Agonists of the GPR35 Receptor using an Image-Based Assay - Set 4. [Related pubchem assays (depositor defined):AID2013, AID2026]; assay type: functional
Cannabinoid receptor 2 [24] = target: T2, Cannabinoid receptor 2; assay: SAR analysis of antagonists of the Cannabinoid Receptor 2 using an Image-Based Assay - Set 3. [Related pubchem assays (depositor defined):AID2013, AID2026]; assay type: functional
Cannabinoid receptor 1 [25] = target: T4, Cannabinoid receptor 1; assay: SAR analysis of antagonists of the Cannabinoid Receptor 1 using an Image-Based Assay - Set 4. [Related pubchem assays (depositor defined):AID2013, AID2026]; assay type: functional
Cannabinoid receptor 2 [26] = target: T2, Cannabinoid receptor 2; assay: SAR analysis of agonists of the Cannabinoid Receptor 2 using an Image-Based Assay - Set 3. [Related pubchem assays (depositor defined):AID2013, AID2026]; assay type: functional

T1 sequence (Q9Y2T6 whole entry): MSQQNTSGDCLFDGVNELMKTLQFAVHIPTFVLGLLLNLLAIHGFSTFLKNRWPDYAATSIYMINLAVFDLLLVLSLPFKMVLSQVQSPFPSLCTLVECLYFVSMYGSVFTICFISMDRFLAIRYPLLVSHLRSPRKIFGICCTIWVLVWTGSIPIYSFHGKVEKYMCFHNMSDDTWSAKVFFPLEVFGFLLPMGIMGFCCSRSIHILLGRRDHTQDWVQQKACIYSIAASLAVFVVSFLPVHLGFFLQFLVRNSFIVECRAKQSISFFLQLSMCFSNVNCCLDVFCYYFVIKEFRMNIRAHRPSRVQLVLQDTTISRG
T4 sequence (P21554 whole entry, the tested form may be a part): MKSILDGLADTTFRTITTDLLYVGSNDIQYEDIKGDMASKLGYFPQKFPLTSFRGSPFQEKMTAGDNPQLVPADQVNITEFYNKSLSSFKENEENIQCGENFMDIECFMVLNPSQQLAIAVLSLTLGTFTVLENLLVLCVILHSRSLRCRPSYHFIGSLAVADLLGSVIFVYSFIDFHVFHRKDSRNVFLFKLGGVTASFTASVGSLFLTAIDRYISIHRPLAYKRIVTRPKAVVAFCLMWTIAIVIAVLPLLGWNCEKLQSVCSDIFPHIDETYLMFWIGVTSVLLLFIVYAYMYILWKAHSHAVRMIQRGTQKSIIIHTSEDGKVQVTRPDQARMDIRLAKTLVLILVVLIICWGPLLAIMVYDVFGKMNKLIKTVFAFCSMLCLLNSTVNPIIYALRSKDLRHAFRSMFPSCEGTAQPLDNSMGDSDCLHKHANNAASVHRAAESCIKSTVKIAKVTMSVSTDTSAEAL
T3 sequence (Q9HC97 whole entry): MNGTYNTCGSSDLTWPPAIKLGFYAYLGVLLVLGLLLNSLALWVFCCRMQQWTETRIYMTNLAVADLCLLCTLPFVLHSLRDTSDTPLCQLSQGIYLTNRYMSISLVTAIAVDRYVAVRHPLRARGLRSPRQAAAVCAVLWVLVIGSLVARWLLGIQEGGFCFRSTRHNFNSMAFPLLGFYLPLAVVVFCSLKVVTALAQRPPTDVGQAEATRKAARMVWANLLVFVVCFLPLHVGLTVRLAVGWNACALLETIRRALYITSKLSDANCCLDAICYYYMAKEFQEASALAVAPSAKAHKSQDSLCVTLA
T2 sequence (P34972 whole entry): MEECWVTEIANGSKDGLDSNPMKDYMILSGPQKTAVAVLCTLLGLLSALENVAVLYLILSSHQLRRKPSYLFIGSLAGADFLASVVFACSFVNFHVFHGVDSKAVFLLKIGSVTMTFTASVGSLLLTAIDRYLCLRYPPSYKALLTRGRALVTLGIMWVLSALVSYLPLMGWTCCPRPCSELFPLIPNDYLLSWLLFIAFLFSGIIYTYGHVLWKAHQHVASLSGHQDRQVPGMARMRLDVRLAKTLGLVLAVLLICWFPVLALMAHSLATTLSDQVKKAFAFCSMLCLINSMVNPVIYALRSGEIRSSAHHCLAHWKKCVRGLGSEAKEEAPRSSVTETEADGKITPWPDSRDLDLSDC
T8 sequence (P41145 whole entry): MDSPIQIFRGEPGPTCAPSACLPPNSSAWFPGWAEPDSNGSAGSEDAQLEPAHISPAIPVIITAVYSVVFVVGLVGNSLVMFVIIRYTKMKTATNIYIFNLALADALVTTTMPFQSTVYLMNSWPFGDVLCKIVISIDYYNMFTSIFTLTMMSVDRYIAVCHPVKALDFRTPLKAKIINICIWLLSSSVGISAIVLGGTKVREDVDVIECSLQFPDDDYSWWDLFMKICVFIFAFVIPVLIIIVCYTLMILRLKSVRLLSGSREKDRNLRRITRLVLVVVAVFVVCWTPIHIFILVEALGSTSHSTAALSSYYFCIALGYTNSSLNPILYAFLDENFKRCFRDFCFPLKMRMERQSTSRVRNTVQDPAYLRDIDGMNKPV
T7 sequence (P41143 whole entry): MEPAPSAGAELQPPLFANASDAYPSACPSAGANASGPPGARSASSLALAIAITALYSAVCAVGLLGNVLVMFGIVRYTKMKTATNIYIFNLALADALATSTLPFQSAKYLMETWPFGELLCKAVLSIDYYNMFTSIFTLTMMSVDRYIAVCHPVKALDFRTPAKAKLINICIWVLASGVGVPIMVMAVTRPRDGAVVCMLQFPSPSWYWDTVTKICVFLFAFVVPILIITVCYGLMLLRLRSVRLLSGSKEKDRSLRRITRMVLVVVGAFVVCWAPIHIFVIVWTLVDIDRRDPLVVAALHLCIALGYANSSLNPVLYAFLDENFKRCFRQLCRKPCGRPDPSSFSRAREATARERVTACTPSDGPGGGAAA
Beta-galactosidase, sequence (Q8VNN2 whole entry): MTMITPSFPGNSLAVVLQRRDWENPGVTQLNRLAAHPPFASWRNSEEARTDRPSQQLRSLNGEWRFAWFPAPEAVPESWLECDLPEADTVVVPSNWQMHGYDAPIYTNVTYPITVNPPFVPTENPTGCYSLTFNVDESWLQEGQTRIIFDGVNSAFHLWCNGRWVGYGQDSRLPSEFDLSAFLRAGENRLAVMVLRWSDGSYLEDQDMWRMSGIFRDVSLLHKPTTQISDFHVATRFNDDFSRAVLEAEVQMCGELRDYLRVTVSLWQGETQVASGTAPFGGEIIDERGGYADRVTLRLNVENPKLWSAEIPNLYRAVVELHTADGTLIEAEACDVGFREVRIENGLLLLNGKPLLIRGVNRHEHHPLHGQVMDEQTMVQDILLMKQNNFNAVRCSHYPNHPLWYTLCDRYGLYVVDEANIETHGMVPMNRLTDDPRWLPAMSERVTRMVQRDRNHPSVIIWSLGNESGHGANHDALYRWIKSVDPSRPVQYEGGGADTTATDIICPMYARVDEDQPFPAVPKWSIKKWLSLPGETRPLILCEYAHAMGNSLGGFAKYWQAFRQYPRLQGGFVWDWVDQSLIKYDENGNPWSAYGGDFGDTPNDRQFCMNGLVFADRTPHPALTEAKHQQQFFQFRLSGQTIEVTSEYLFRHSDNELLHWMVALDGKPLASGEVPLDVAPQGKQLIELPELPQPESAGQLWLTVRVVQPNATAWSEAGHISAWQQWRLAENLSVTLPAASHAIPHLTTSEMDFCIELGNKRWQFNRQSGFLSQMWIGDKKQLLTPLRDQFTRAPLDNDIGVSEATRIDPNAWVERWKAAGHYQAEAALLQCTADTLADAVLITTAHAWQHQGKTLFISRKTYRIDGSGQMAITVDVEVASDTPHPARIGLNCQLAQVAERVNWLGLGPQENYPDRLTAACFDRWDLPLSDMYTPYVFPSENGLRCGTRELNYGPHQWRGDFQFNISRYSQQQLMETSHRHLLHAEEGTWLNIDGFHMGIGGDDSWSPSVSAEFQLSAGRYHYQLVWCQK
Mu-type opioid receptor, sequence (P35372 whole entry): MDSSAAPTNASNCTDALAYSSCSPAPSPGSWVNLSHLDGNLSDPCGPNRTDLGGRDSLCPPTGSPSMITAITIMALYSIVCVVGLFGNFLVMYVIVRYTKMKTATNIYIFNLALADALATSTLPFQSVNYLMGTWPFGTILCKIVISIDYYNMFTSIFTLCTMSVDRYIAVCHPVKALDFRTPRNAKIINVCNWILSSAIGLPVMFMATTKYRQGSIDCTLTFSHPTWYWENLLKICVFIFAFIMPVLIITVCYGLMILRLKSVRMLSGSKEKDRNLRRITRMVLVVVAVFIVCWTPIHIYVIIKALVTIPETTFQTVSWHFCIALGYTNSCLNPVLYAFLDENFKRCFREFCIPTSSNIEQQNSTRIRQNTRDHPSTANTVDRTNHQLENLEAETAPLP
CAAX prenyl protease 2, sequence (Q03530 whole entry): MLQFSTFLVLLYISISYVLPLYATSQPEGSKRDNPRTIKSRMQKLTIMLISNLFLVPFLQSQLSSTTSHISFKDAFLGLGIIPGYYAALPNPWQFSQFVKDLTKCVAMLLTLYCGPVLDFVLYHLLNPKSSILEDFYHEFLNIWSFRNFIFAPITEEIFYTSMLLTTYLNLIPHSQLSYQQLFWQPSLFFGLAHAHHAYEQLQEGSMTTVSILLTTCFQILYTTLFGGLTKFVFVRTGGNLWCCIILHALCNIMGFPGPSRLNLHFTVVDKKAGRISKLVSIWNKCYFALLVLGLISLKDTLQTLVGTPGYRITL

For `Cc1ccsc1/C=N/NC(=O)c1nnn(-c2nonc2N)c1C(C)C`, the AC50 [1] was 67.6 µM (active) and the AC50 (CAAX prenyl protease 2) was 0.87 µM (active).

For `CC1=CC(C)(C)N2C(=O)C3(SCC(=O)N3c3ccc(F)cc3)c3cc(C)cc1c32` (stereo unspecified), the IC50 [2] was 1.42 µM (active), the IC50 (Cannabinoid receptor 2 [3]) was > 32 µM (inactive) and the EC50 [4] was > 32 µM (inactive). The IC50 [5] was > 32 µM (inactive), the AC50 [6] was 1.13 µM (active) and the AC50 [7] was 21.8 µM (active). The EC50 (Cannabinoid receptor 1 [8]) was > 32 µM (inactive), the AC50 [9] was 43.1 µM (active) and the IC50 [10] was 4.09 µM (active). For the same compound, the AC50 [11] was 53.1 µM (active), the EC50 (Cannabinoid receptor 2 [12]) was > 32 µM (inactive) and the AC50 [13] was 23.7 µM (active). For the same compound, the IC50 (Cannabinoid receptor 1 [14]) was 6.41 µM (active) and the “Absolute IC50 (XBP1)” value (X-box-binding protein 1) was less than 10 µM.

For `O=[N+]([O-])c1ccc2nc(Cl)nc(-c3ccccc3)c2c1`, the AC50 [15] was 134 µM (active), the EC50 (Mu-type opioid receptor) was > 32 µM (inactive) and the IC50 [16] was > 32 µM (inactive). For the same compound, the EC50 [17] was > 32 µM (inactive), the IC50 [18] was 8.95 µM (active) and the EC50 (Protein RecA) was > 380 µM (inactive). For the same compound, the IC50 [19] was 27.9 µM and the EC50 (Beta-galactosidase) was > 31.5 µM (inactive).

For `Cc1nc(N2CCN(C(=O)C3CCCCC3)CC2)c2c3c(sc2n1)CCCC3`, the IC50 [20] was 9.24 µM (active), the EC50 (Cannabinoid receptor 1 [21]) was > 32 µM (inactive) and the IC50 [22] was > 32 µM (inactive). For the same compound, the EC50 [23] was > 32 µM (inactive), the IC50 (Cannabinoid receptor 2 [24]) was > 16.8 µM (inactive) and the IC50 (Cannabinoid receptor 1 [25]) was 3.05 µM (active). The EC50 (Cannabinoid receptor 2 [26]) was > 32 µM (inactive).
